The values below come from patent US20250051347A1, “BIFUNCTIONAL CHIMERIC HETEROCYCLIC COMPOUND AND USE THEREOF AS ANDROGEN RECEPTOR DEGRADER” (Hinova Pharmaceuticals, Inc., priority 2021, published 2025).

Read-outs that look alike come from different tables or passages of the source.

In one assay the test system is 22RV1 cells. The conditions noted are these: Homo sapiens, 22Rv1, 144 h.
In assay [1] the target is T1, androgen receptor (AR) splicing variant AR-v7 (Homo sapiens, UniProt P10275).
T1 construct: The degradation activity of compounds on AR-v7 in 22RV1 cells; host or cells: 22RV1 cells
T1 sequence (P10275 1-644 isoform P10275-3): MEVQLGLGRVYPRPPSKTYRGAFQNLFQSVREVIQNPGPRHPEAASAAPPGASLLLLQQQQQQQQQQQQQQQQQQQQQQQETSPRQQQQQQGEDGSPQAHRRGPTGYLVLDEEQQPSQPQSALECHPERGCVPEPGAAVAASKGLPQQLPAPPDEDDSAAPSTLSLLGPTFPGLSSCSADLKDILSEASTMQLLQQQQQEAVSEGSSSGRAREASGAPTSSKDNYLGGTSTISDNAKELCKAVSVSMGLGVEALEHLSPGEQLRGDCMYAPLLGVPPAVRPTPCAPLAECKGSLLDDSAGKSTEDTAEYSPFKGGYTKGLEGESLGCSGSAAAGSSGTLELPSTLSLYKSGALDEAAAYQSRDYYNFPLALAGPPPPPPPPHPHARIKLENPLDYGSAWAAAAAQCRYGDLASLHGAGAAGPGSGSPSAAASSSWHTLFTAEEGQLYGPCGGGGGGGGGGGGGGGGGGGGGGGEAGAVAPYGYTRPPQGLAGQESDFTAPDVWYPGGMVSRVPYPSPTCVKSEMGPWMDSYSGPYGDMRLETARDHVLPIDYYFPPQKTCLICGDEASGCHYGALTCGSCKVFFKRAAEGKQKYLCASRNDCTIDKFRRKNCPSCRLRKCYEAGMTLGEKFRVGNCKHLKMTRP
Description: Degradation activity on androgen receptor splicing variant AR-v7 in 22RV1 cells (ELISA). As to conditions: AR-v7 degradation in 22RV1 cells, 48 h, class symbols. Format: cell-based.

The mark [2] stands for this setting: read-out: 22RV1 IC50 (nM), 22RV1 cells, 6 days culture, CCK-8, OD 450 nm.

As for `CC(C)(c1ccc(OCCCCCCCCOCCCCNc2ccc3c(c2)C(=O)N(C2CCC(=O)NC2=O)C3=O)cc1)c1ccc(OCc2ccnc(N3CC4(COC4)C3)n2)cc1` (stereo not drawn) [Example 61, 5-((4-((8-(4-(2-(4-((2-(2-oxa-6-azaspiro[3.3]heptan-6-yl)pyrimidin-4-yl)methoxy)phenyl)propan-2-yl)phenoxy)octyl)oxy)butyl)amino)-2-(2,6-dioxopiperidin-3-yl)isoindolin-1,3-dione], the IC50 in the assay with 22RV1 cells (read-out: 22RV1 IC50 (nM)) stood at 4000 nM. The compound further showed a DC50 in assay [1] of 1000 to 5000 nM.

`CC(C)(c1ccc(OCCCCCCCOCCCOCCCNc2ccc3c(c2)C(=O)N(C2CCC(=O)NC2=O)C3=O)cc1)c1ccc(OCc2ccnc(N3CC4(COC4)C3)n2)cc1` (stereo not drawn) [Example 62, 5-((3-(3-((7-(4-(2-(4-((2-(2-oxa-6-azaspiro[3.3]heptan-6-yl)pyrimidin-4-yl)methoxy)phenyl)propan-2-yl)phenoxy)heptyl)oxy)propoxy)propyl)amino)-2-(2,6-dioxopiperidin-3-yl)isoindolin-1,3-dione]: the IC50 in the assay on 22RV1 cells (setting [2]) came out at 1500 nM. In assay [1], this compound returned a DC50 of 1000 to 5000 nM. The like results for `CSc1nccc(COc2ccc(C(C)(C)c3ccc(OCCCNc4ccc5c(c4)C(=O)N(C4CCC(=O)NC4=O)C5=O)cc3)cc2)n1` (stereo not drawn) [Example 66] were, in that order, 70 nM and 11 to 100 nM. In the case of `COc1nccc(COc2ccc(C(C)(C)c3ccc(OCCCNc4ccc5c(c4)C(=O)N(C4CCC(=O)NC4=O)C5=O)cc3)cc2)n1` (stereo not drawn) [Example 68, 2-(2,6-dioxopiperidin-3-yl)-5-((3-(4-(2-(4-((2-methoxypyrimidin-4-yl)methoxy)phenyl)propan-2-yl)phenoxy)propyl)amino)isoindolin-1,3-dione], in the assay on 22RV1 cells (setting [2]), the IC50 was 30 nM. Further, the DC50 in assay [1] lay within 11 to 100 nM. The like results for `CCOc1nccc(COc2ccc(C(C)(C)c3ccc(OCCCNc4ccc5c(c4)C(=O)N(C4CCC(=O)NC4=O)C5=O)cc3)cc2)n1` (stereo not drawn) [Example 69, 2-(2,6-dioxopiperidin-3-yl)-5-((3-(4-(2-(4-((2-ethoxypyrimidin-4-yl)methoxy)phenyl)propan-2-yl)phenoxy)propyl)amino)isoindolin-1,3-dione] were, in that order, 50 nM and 11 to 100 nM. With `CC(C)(c1ccc(OCCCNc2ccc3c(c2)C(=O)N(C2CCC(=O)NC2=O)C3=O)cc1)c1ccc(OCc2ccnc(OC3CC3)n2)cc1` (stereo not drawn) [Example 70, 5-((3-(4-(2-(4-((2-cyclopropyloxypyrimidin-4-yl)methoxy)phenyl)propan-2-yl)phenoxy)propyl)amino)-2-(2,6-dioxopiperidin-3-yl)isoindolin-1,3-dione], the IC50 in the assay with 22RV1 cells (setting [2]) turned out to be 30 nM. In addition, in assay [1], the DC50 was 11 to 100 nM.

Consider `CC(C)(c1ccc(OCCCNc2ccc3c(c2)C(=O)N(C2CCC(=O)NC2=O)C3=O)cc1)c1ccc(OCc2ccnc(N3CCOCC3)n2)cc1` (stereo not drawn) [Example 71, 2-(2,6-dioxopiperidin-3-yl)-5-((3-(4-(2-(4-((2-morpholinepyrimidin-4-yl)methoxy)phenyl)propan-2-yl)phenoxy)propyl)amino)isoindolin-1,3-dione], for which the IC50 in the assay with 22RV1 cells (setting [2]) stood at 35 nM. In addition, the DC50 in assay [1] is 11 to 100 nM. For `CN1CCN(c2nccc(COc3ccc(C(C)(C)c4ccc(OCCCNc5ccc6c(c5)C(=O)N(C5CCC(=O)NC5=O)C6=O)cc4)cc3)n2)CC1` (stereo not drawn) [Example 72], in that order: 37 nM and 11 to 100 nM. The like results for `CC(C)(c1ccc(OCCCNc2ccc3c(c2)C(=O)N(C2CCC(=O)NC2=O)C3=O)cc1)c1ccc(OCc2ccnc(N3CC4(COC4)C3)n2)cc1` (stereo not drawn) [Example 73, 5-((3-(4-(2-(4-((2-(2-oxa-6-azaspiro[3.3]heptan-6-yl)pyrimidin-4-yl)methoxy)phenyl)propan-2-yl)phenoxy)propyl)amino)-2-(2,6-dioxopiperidin-3-yl)isoindolin-1,3-dione] were, in that order, 25 nM and 11 to 100 nM. As for `CC(C)(c1ccc(OCc2ccnc(N3CC4(COC4)C3)n2)cc1)c1ccc(O[C@H]2C[C@H](Nc3ccc4c(c3)C(=O)N(C3CCC(=O)NC3=O)C4=O)C2)c(F)c1` (stereo partly drawn) [Example 364, 5-(((1r,3r)-3-(4-(2-(4-((2-(2-oxa-6-azaspiro[3.3]heptane-6-yl)pyrimidin-4-yl)methoxy)phenyl)isopropan-2-yl)-2-fluorophenoxy)cyclobutyl)amino)-2-(2,6-dioxopiperidin-3-yl)isoindolin-1,3-dione], the IC50 with 22RV1 cells (read-out: 22RV1 IC50 (nM)) came out at 12 nM.

Regarding `CC(C)(c1ccc(OCc2cc(N3CC4(COC4)C3)ncn2)cc1)c1ccc(OC2CC(Nc3ccc4c(c3)C(=O)N(C3CCC(=O)NC3=O)C4=O)C2)cc1` (stereo not drawn) [Example 532], the IC50 in the assay on 22RV1 cells (setting [2]) came out at 9 nM.

Turning to `CC(C)(c1ccc(OCc2cncc(N3CC4(COC4)C3)n2)cc1)c1ccc(O[C@H]2C[C@@H](Nc3ccc4c(c3)C(=O)N(C3CCC(=O)NC3=O)C4=O)C2)cc1` (stereo partly drawn) [Example 538], the IC50 in the assay on 22RV1 cells (setting [2]) amounted to 12 nM. For `CC(C)(c1ccc(OCc2nccc(N3CC4(COC4)C3)n2)cc1)c1ccc(O[C@H]2C[C@H](Nc3ccc4c(c3)C(=O)N(C3CCC(=O)NC3=O)C4=O)C2)cc1` (stereo partly drawn) [Example 544], the IC50 with 22RV1 cells (setting [2]) was found to be 12 nM. `CC(C)(c1ccc(OCc2ccnc(N3CC4(COC4)C3)n2)cc1)c1ccc(OC2CC3(CC(Nc4ccc5c(c4)C(=O)N(C4CCC(=O)NC4=O)C5=O)C3)C2)cc1` (stereo not drawn) [Example 567, 5-((6-(4-(2-(4-((2-(2-oxa-6-azaspiro[3.3]heptan-6-yl)pyrimidin-4-yl)methoxy)phenyl)propan-2-yl)phenoxy)spiro[3.3]heptan-2-yl)amino)-2-(2,6-dioxopiperidin-3-yl)isoindolin-1,3-dione]: the DC50 in assay [1] was 101 to 1000 nM.

With `CC(C)(c1ccc(OCC(=O)Nc2ccc3c(c2)C(=O)N(C2CCC(=O)NC2=O)C3=O)cc1)c1ccc(OCc2ccnc(N3CC4(COC4)C3)n2)cc1` (stereo not drawn) [Example 568], in assay [1], the DC50 lay within 11 to 100 nM. Same read-out and setting: the result for `CC(C)(c1ccc(OCc2ccnc(N3CC4(COC4)C3)n2)cc1)c1ccc(OC2CCCCC2Nc2ccc3c(c2)C(=O)N(C2CCC(=O)NC2=O)C3=O)cc1` (stereo not drawn) [Example 569, 5-((2-(4-(2-(4-((2-(2-oxa-6-azaspiro[3.3]heptan-6-yl)pyrimidin-4-yl)methoxy)phenyl)propan-2-yl)phenoxy)cyclohexyl)amino)-2-(2,6-dioxopiperidin-3-yl)isoindolin-1,3-dione] reads 1000 to 5000 nM; that for `CC(C)(c1ccc(OCc2ccnc(N3CC4(COC4)C3)n2)cc1)c1ccc(N2CC(CNc3ccc4c(c3)C(=O)N(C3CCC(=O)NC3=O)C4=O)C2)cc1` (stereo not drawn) [Example 570], 101 to 1000 nM; that for `CC(C)(c1ccc(Oc2cnc(N3CC4(COC4)C3)cn2)cc1)c1ccc(O[C@H]2C[C@H](Nc3ccc4c(c3)C(=O)N(C3CCC(=O)NC3=O)C4=O)C2)cc1` (stereo partly drawn) [Example 573], 11 to 100 nM. As to `CC(C)(c1ccc(Oc2ncnc(N3CC(N4CCC4)C3)c2F)cc1)c1ccc(O[C@H]2C[C@@H](Nc3ccc4c(c3)C(=O)N(C3CCC(=O)NC3=O)C4=O)C2)cc1` (stereo partly drawn) [Example 575], the DC50 in assay [1] is 11 to 100 nM.

The compound `CCN1CC(Oc2ncnc(Oc3ccc(C(C)(C)c4ccc(O[C@H]5C[C@@H](Nc6ccc7c(c6)C(=O)N(C6CCC(=O)NC6=O)C7=O)C5)cc4)cc3)c2F)C1` (stereo partly drawn) [Example 576] yielded a DC50 in assay [1] of 11 to 100 nM. Still for that read-out and setting: the same measure for `CC(C)(c1ccc(Oc2cc(-n3nccn3)ncn2)cc1)c1ccc(O[C@H]2C[C@@H](Nc3ccc4c(c3)C(=O)N(C3CCC(=O)NC3=O)C4=O)C2)cc1` (stereo partly drawn) [Example 577]: 11 to 100 nM; for `Cc1nc(-c2cncc(Oc3ccc(C(C)(C)c4ccc(O[C@H]5C[C@H](Nc6ccc7c(c6)C(=O)N(C6CCC(=O)NC6=O)C7=O)C5)cc4)cc3)n2)no1` (stereo partly drawn) [Example 585]: 11 to 100 nM; for `Cc1nc(-c2cnc(Oc3ccc(C(C)(C)c4ccc(O[C@H]5C[C@H](Nc6ccc7c(c6)C(=O)N(C6CCC(=O)NC6=O)C7=O)C5)cc4)cc3)cn2)no1` (stereo partly drawn) [Example 586]: 11 to 100 nM. The same measure, in the same setting: the result for `Cc1nc(-c2ccc(Oc3ccc(C(C)(C)c4ccc(O[C@H]5C[C@@H](Nc6ccc7c(c6)C(=O)N(C6CCC(=O)NC6=O)C7=O)C5)cc4)cc3)cn2)no1` (stereo partly drawn) [Example 587] reads 11 to 100 nM; that for `Cc1nnc(-c2cc(Oc3ccc(C(C)(C)c4ccc(O[C@H]5C[C@H](Nc6ccc7c(c6)C(=O)N(C6CCC(=O)NC6=O)C7=O)C5)cc4)cc3)ncn2)o1` (stereo partly drawn) [Example 590], 11 to 100 nM; that for `CC(C)(c1ccc(Oc2cnc(C#N)cn2)cc1)c1ccc(O[C@H]2C[C@H](Nc3ccc4c(c3)C(=O)N(C3CCC(=O)NC3=O)C4=O)C2)cc1` (stereo partly drawn) [Example 594, 5-(4-(2-(4-((1r,3r)-3-((2-(2,6-dioxopiperidin-3-yl)-1,3-dioxoisoindolin-5-yl)amino)cyclobutyloxy)phenyl)propan-2-yl)phenoxy)pyrazin-2-nitrile], 11 to 100 nM. Same read-out and setting: the result for `Cc1nc(-c2ccc(Oc3ccc(C(C)(C)c4ccc(O[C@H]5C[C@@H](Nc6ccc7c(c6)C(=O)N(C6CCC(=O)NC6=O)C7=O)C5)cc4)cc3)cn2)no1` (stereo partly drawn) [Example 597, 2-(2,6-dioxopiperidin-3-yl)-5-(((1s,3s)-3-(4-(2-(4-((6-(5-methyl-1,2,4-oxadiazol-3-yl)pyridin-3-yl)oxy)phenyl)propan-2-yl)phenoxy)cyclobutyl)amino)isoindolin-1,3-dione] reads 11 to 100 nM.
